Legend:
[1] = molecular target: T1, peripheral type CCK receptors in rat pancreas (Rattus norvegicus, UniProt P30551); test: Binding to peripheral type CCK receptors in rat pancreas (3H-L-364,718); settings: at 10 μM; read-out: Pancreas Percent Inhibition
T1 construct: Pancreas was obtained from male Sprague-Dawley rats; from tissue; host or cells: pancreas membranes of male Sprague-Dawley rats
T1 sequence (P30551 1-444): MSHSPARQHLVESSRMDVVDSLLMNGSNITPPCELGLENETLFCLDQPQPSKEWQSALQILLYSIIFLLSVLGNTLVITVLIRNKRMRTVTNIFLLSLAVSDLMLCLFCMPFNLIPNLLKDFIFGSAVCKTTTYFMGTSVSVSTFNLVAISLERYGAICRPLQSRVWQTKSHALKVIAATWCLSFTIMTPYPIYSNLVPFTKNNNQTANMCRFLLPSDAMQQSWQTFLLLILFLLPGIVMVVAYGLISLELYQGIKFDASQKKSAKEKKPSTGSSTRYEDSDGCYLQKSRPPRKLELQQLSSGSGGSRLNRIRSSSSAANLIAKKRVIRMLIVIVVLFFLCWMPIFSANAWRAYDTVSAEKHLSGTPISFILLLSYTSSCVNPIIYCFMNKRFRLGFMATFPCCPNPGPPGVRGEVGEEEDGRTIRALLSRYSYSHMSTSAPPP
Method: Binding to peripheral type CCK receptors in rat pancreas was done according to the method of Chang et al. (Mol. Pharmacol. 30: 212-217, 1986) using ^3 H-L364, 718. Pancreas was obtained from male Sprague-Dawley rats, 150-200 g, after decapitation, and dissected free from adipose and connective tissue. The tissue was homogenized in 30 volumes of 50 mM Tris buffer, pH 7.4 and centrifuged at 40,000 g for 10 min. The tissue pellet was washed by resuspension and centrifugation as described above. The final pellet was suspended in 500 volumes of assay buffer (50 mM Tris buffer, pH 7.4, 5 mM MgCl2, 0.14 mg/ml bacitracin, and 5 mM dithiothreitol) to give a protein concentration of 30-60 μg/200 μl . Reagent volumes for the assay were the same as those used for CCK binding to brain membranes. Tritium labeled L-364,718 (Dupont NEN, NET-971) was used as the ligand at a concentration of 0.4-0.6 nM. The samples were incubated 1 hour at room temperature and then filtered as described for the CCK-brain receptor. Scintillation cocktail was added to the filters which were counted for radioactivity using a Micromedic Taurus automatic liquid scintillation counter.
Compound samples were prepared and IC-50 values were determined as described for the CCK-brain experiments. Non-specific binding was that amount left bound to the filters after adding 100 nM L-364,718.

[2] = molecular target: T2, brain CCK receptor (Mus musculus, UniProt P56481); test: CCK receptor binding, mouse brain membranes (125I-CCK-8 sulfate); settings: for inhibition at 1 µM / inhibition at 10 µM: read-out: Brain Percent Inhibition; for IC50: mouse brain membranes, read-out: Brain IC50
T2 construct: from tissue; host or cells: forebrain membranes of male CF-1 mice
T2 sequence (P56481 1-453): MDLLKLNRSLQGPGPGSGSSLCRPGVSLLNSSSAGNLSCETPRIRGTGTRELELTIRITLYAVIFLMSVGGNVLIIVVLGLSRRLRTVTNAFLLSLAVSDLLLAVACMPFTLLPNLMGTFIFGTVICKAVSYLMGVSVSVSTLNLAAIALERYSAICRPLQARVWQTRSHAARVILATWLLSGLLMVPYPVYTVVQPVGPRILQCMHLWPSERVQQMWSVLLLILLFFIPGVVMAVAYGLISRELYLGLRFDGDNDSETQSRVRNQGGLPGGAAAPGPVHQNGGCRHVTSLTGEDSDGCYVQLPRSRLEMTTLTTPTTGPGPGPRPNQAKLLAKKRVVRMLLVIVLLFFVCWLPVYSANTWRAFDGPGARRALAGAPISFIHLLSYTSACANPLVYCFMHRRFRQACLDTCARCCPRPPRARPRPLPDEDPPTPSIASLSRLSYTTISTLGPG
Method: Brain CCK receptor binding was performed using mouse brain membranes according to the method of Chang and Lotti (Proc. Natl. Acad. Sci. 83: 4923-4926, 1986). Male CF-1 mice, 23-25 g were sacrificed by cervical dislocation, the forebrain removed and placed in ice cold 50 mM Tris buffer, pH 7.4. The tissue was homogenized in 100 volumes of the Tris buffer with a Brinkman Polytron or Tekmar Tissumizer and then centrifuged at 40,000 g for 10 min. Pellets were resuspended in Tris buffer, centrifuged as above and then resuspended in 100 volumes of assay buffer, pH 6.5 (20 mM N-2-hydroxyethyl-piperazine-N'-2-ethane sulfonic acid (HEPES), 1 mM ethylene glycol his (2-aminoethyl ether-N,N,N',N'-tetraacetic acid) (EGTA), 5 mM MgCl2, 130 mM NaCl, and 0.25 mg/ml bacitracin). The binding assay consisted of 50 μL of compound (or buffer for total binding), 50 μL of ^125 I-CCK-8 sulfate (20 pM) (Amersham IM- 159), 200 μL of assay buffer and 200 μL of homogenate (80-120 μg protein). The samples were incubated at room temperature (25°) for 2 hours, and they were then filtered through GF/B glass fiber filters (soaked in wash buffer for 2 hours before use) using a 48 well Brandel cell harvester designed for receptor binding. The filters were washed twice with 3 ml of 50 mM Tris buffer, pH 7.4, containing 0.01% BSA and then counted for radioactivity in plastic tubes with a Micromedic 10/600 automatic gamma counter.
Compounds were dissolved in dimethyl sulfoxide (DMSO) at a concentration of 10 mM and then further diluted with assay buffer. The concentration of DMSO in the incubation was 0.1% or less and had no effect on the assay at that level. IC-50 values of displacement curves were determined using 7 concentrations of compound and were calculated using the ALLFIT computer program of DeLean, Munson and Rodbard (Am. J. Physiol. 235: E97-E102, 1978). Non-specific binding was determined as the displacement of the radioligand by 100 nM CCK-8 sulfate.

Row | Compound | inhibition at 10 µM [1] | inhibition at 1 µM [2] | inhibition at 10 µM [2] | IC50 [2]
1 | O=C1NN(C(=O)Nc2ccc3c(c2)OCO3)[C@H](c2ccccc2)[C@H]1c1ccccc1 (relative stereo) [Example 52] | 21% | 60% |  | 
2 | O=C1NN(C(=O)Cc2ccc(C(F)(F)F)cc2)[C@H](c2ccccc2)[C@H]1c1ccccc1 (relative stereo) [Example 77] | 20% |  | 56% | 
3 | C[C@@H](NC(=O)N1NC(=O)C(c2ccccc2)C1c1ccccc1)c1ccccc1 (some centres unmarked) [Example 102] | 11% |  |  | 4700 nM
4 | O=C1NN(C(=O)Nc2ccc(F)cc2F)[C@H](c2ccccc2)[C@H]1c1ccccc1 (relative stereo) [Example 56] | 15% | 25% |  | 
5 | O=C1NN(C(=O)Nc2cc(C(F)(F)F)ccc2Cl)[C@H](c2ccccc2)[C@H]1c1ccccc1 (relative stereo) [Example 57] | 45% |  |  | 1000 nM
6 | CCCCc1ccc(NC(=O)N2NC(=O)[C@@H](c3ccccc3)[C@@H]2c2ccccc2)cc1 (relative stereo) [Example 28] | 55% |  |  | 440 nM
7 | O=C1NN(C(=O)Nc2ccc(Cl)cc2)[C@@H](c2ccccc2)[C@@H]1c1ccccc1 (relative stereo) [Example 18] | 22% |  |  | 93 nM
8 | O=C1NN(C(=O)NCc2ccccc2)[C@@H](c2ccccc2)[C@@H]1c1ccccc1 (relative stereo) [Example 96] | 13% |  | 42% | 
9 | CCCc1ccc(NC(=O)N2NC(=O)[C@@H](c3ccccc3)[C@@H]2c2ccccc2)cc1 (relative stereo) [Example 27] | 60% |  |  | 230 nM
10 | O=C1NN(C(=O)Nc2ccncc2)[C@@H](c2ccccc2)[C@@H]1c1ccccc1 (relative stereo) [Example 89] | 21% |  | 34% | 
11 | O=C1NN(C(=S)Nc2ccccc2)[C@H](c2ccccc2)[C@H]1c1ccccc1 (relative stereo) [Example 60] | 37% |  | 34% | 
12 | Cc1ccc(NC(=O)N2NC(=O)[C@@H](c3ccccc3)[C@@H]2c2ccccc2)cc1 (relative stereo) [Example 25] | 14% |  |  | 210 nM
13 | O=C1CC(c2ccc(-c3ccccc3)cc2)N(C(=O)Nc2cccc(Cl)c2Cl)N1 (centres unmarked) [Example 68] | 70% |  |  | 4300 nM
14 | O=C1NN(C(=O)NCCc2ccc(Cl)cc2)[C@@H](c2ccccc2)[C@@H]1c1ccccc1 (relative stereo) [Example 107] | 61% |  | 86% | 
15 | O=C(O)COC1=NN(C(=O)Nc2ccc(Br)cc2)[C@@H](c2ccccc2)[C@@H]1c1ccccc1 (relative stereo) [Example 12 (O--), 1-[(4-bromophenyl)aminocarbonyl]-3-carboxymethoxy-4,5-diphenyl-2-pyrazoline] | 64% |  |  | 340 nM
16 | O=C1NN(C(=O)Nc2ccccc2C(F)(F)F)[C@H](c2ccccc2)[C@H]1c1ccccc1 (relative stereo) [Example 53] | 17% |  |  | 1200 nM

Row | Compound | inhibition at 10 µM [1] | inhibition at 1 µM [2] | inhibition at 10 µM [2] | IC50 [2]
17 | O=C1NN(C(=S)Nc2c(F)c(F)c(F)c(F)c2F)[C@H](c2ccccc2)[C@H]1c1ccccc1 (relative stereo) [Example 65] | 37% |  | 50% | 
18 | CCc1ccc(NC(=O)N2NC(=O)[C@@H](c3ccccc3)[C@@H]2c2ccccc2)cc1 (relative stereo) [Example 26] | 47% |  |  | 75 nM
19 | O=C1NN(c2nc3ccccc3o2)[C@@H](c2ccccc2)[C@@H]1c1ccccc1 (relative stereo) [Example 87] | 23% |  | 47% | 
20 | O=C1NN(C(=O)Nc2cccc(Cl)c2Cl)[C@H](c2ccccc2)[C@H]1c1ccccc1 (relative stereo) [Example 54] | 53% |  |  | 1150 nM
21 | O=C1NN(C(=O)NCCc2ccccc2)[C@@H](c2ccccc2)[C@@H]1c1ccccc1 (relative stereo) [Example 105] | 43% |  |  | 490 nM
22 | Cc1cccc(NC(=O)N2NC(=O)[C@H](c3ccccc3)[C@H]2c2ccccc2)c1 (relative stereo) [Example 41] | 21% |  | 57% | 
23 | CC(C)Oc1cccc(NC(=O)N2NC(=O)[C@H](c3ccccc3)[C@H]2c2ccccc2)c1 (relative stereo) [Example 43] | 24% |  |  | 230 nM
24 | O=C1NN(C(=O)Nc2ccc(I)cc2)[C@@H](c2ccccc2)[C@@H]1c1ccccc1 (relative stereo) [Example 21] | 77% |  |  | 57 nM
25 | O=C1NN(C(=O)Cc2cccc(C(F)(F)F)c2)[C@H](c2ccccc2)[C@H]1c1ccccc1 (relative stereo) [Example 76] | 4% |  | 55% | 
26 | O=C1NN(C(=O)Oc2ccc([N+](=O)[O-])cc2)[C@@H](c2ccccc2)[C@@H]1c1ccccc1 (relative stereo) [Example 80] | 9% |  |  | 5200 nM
27 | O=C(O)CN1C(=O)[C@@H](c2ccccc2)[C@H](c2ccccc2)N1C(=O)Nc1ccc(Br)cc1 (relative stereo) [Example 12 (N--), 1-[(4-Bromophenyl)aminocarbonyl]-2-carboxymethyl-4,5-diphenyl-3-pyrazolidinone] | 55% |  |  | 1900 nM
28 | O=C(Nc1ccc(Cl)c(C(F)(F)F)c1)N1N[C@@H](c2ccccc2)[C@H](c2ccccc2)C1=O (relative stereo) [Example 8, 2-[(4-Chloro-3-trifluoromethylphenyl)amino-carbonyl]-4,5-diphenyl-3-pyrazolidinone] | 2% |  | 34% | 
29 | O=C1NN(C(=O)Sc2ccc(Br)cc2)[C@@H](c2ccccc2)[C@@H]1c1ccccc1 (relative stereo) [Example 81] | 59% |  | 95% | 
30 | C[C@@H](NC(=O)N1NC(=O)C(c2ccccc2)C1c1ccccc1)c1cccc2ccccc12 (some centres unmarked) [Example 104] | 47% |  |  | 900 nM
31 | CN(C)c1ccc(C2C(c3ccccc3)C(=O)NN2C(=O)Nc2ccc(C(F)(F)F)cc2)cc1 (centres unmarked) [Example 113] | 21% | 25% |  | 

— US5399565A, “Pyrazolidinone CCK and gastrin antagonists and pharmaceutical formulations therof” (priority 1993, dated 1995)
